# According to US20230136218A1, “METHODS AND COMPOSITIONS FOR TREATING ACUTE MYELOID LEUKEMIA” (President and Fellows of Harvard College, priority 2019, published 2023):
# “Also recorded” adds a separate entry of the source.
# Experiments:
# [1] = test system: MLL-AF9 AML; assay: Kaplan-Meier survival of MLL-AF9 AML-bearing mice; type: in vivo, mouse
# Text: (§1) The MLL-AF9 and HoxA9/Meis1 leukemia models have been described previously (Sykes et al., 2016). Briefly, the MLL-AF9 model was established by crossing MLL-AF9 knockin mice (Corral et al., 1996) with mice expressing GFP under the control of the ubiquitin promoter as well as mice expressing luciferase under the control of the β-actin promoter. The retroviral transduction model of HoxA9/Meis1 leukemia was generated by the infection of bone marrow mononuclear cells with an MSCV-HoxA9-IRES-Meis1 construct (originally designed by Dr. Guy Sauvageau; Kroon et al., 1998). For both models, leukemic bone marrow cells from a terminally ill mouse were harvested and expanded ex vivo in RPMI1640 medium (Lonza) supplemented with 10% fetal bovine serum (FBS; Gibco), 100 I.U./ml penicillin, 100 μg/ml streptomycin, 2 mM L-glutamine (all from Corning), 20 ng/ml recombinant mouse SCF (rmSCF), 10 ng/ml recombinant mouse interleukin 3 (rmIL-3) and […] (all from R&D Systems).
# (§2) Recipient male mice (age 8-10 weeks) were injected intravenously (retro-orbital) with 1 million leukemia cells in a volume of 100 μl of saline. Disease progression was tracked intravitally using bioluminescence imaging. Mice were anaesthetized using isoflurane, injected with luciferin (150 μl of a 15 mg/ml solution in PBS), and imaged on an IVIS 200 Spectrum In Vivo Imaging System (PerkinElmer). When indicated, mice were treated with iCT (cytarabine, 100 mg/kg, once daily for 5 days and doxorubicin, 3 mg/kg, once daily for the first 3 days) or vehicle (saline) delivered via I.P. injection. To inhibit glutamine metabolism, mice were treated with DON (0.3 mg/kg, once daily) or vehicle (saline) delivered via I.P. injection. To inhibit GLS, mice were treated with a GLS inhibitor (150 mg/kg, twice daily) or vehicle (20% HP-β-cyclodextrin+20% Solutol, 50 mM citrate buffer, pH 3) delivered by oral gavage. To inhibit DHODH, mice were treated with BRQ (50 mg/kg, once daily) or vehicle (70% PBS, 30% poly(ethylene glycol)-400, pH 7.2) delivered via I.P. injection. To inhibit GCL, mice were treated with BSO (twice daily by I.P. injection at 2.23 mg/kg+in the drinking water at 4.45 mg/ml) or vehicle (saline by I.P. injection+untreated drinking water).
# [2] = test system: HoxA9/Meis1 AML; assay: Kaplan-Meier survival of HoxA9/Meis1 AML-bearing mice; type: in vivo, mouse
# Text: as §1
# (§3) Recipient male mice (age 8-10 weeks) were injected intravenously (retro-orbital) with 1 million leukemia cells in a volume of 100 μl of saline. Disease progression was tracked intravitally using bioluminescence imaging. Mice were anaesthetized using isoflurane, injected with luciferin (150 μl of a 15 mg/ml solution in PBS), and imaged on an IVIS 200 Spectrum In Vivo Imaging System (PerkinElmer). […]
# [3] = test system: MLL-AF9 AML cells; assay: AML burden of MLL-AF9 AML-bearing mice by bioluminescence imaging or flow cytometry; type: in vivo, mouse
# Description: as §2, with “To inhibit DHODH, mice were treated with BRQ (50 mg/kg, once daily) or vehicle (70% PBS, 30% poly(ethylene glycol)-400, pH 7.2) delivered via I.P. injection. To inhibit GCL, mice were treated with BSO (twice daily by I.P. injection at 2.23 mg/kg+in the drinking water at 4.45 mg/ml) or vehicle (saline by I.P. injection+untreated drinking water).” left out
# (§4) Cells were suspended in flow buffer and stained for 30 minutes at 4° C. in the dark with antibodies against c-Kit, Sca-1, CD34, CD45, Ter-119, CD31, LepR, CD90, CD105, SLC1A3, SLC38A1 or a lineage cocktail (CD3, Gr-1, CD11b, B220, Ter-119). […] Cell viability was analyzed using Annexin V-APC (BioLegend) and propidium iodide (PI; ThermoFisher Scientific) with Annexin V^−PI^− cells considered as viable cells. The number of viable cells was determined by taking into account the total number of cells per well as measured using a Cellometer (Nexcelom). Mitochondrial membrane potential was measured by Tetramethylrhodamine, ethyl ester (TMRE; ThermoFisher) staining and levels of ROS were measured by CellROX Orange staining. Cells were incubated with 200 nM TMRE or 2.5 μM CellROX Orange in RPMI1640 medium supplemented with 10% FBS, 100 I.U./ml penicillin, 100 μg/ml streptomycin and 2 mM L-glutamine at 37° C. for 30 minutes, washed in flow buffer and analyzed. For all flow cytometry experiments, single color controls were used to set compensations and fluorescence minus one controls were used to set gates. […]
# [4] = test system: MLL-AF9 AML cells; assay: Flow cytometric quantification of CD34 and cKit levels in AML cells obtained from treated mice; type: in vivo, mouse
# Description: as §2
# Cells were suspended in flow buffer and stained for 30 minutes at 4° C. in the dark with antibodies against c-Kit, Sca-1, CD34, CD45, Ter-119, CD31, LepR, CD90, CD105, SLC1A3, SLC38A1 or a lineage cocktail (CD3, Gr-1, CD11b, B220, Ter-119). 7-AAD was included as a viability dye to help identify dead cells. When necessary, cells were stained with a secondary antibody (Alexa Fluor 546-conjugated anti-rabbit IgG) or APC-eFluor 780-conjugated streptavidin (eBioscience) for 15 minutes at 4° C. in the dark. […] Cell viability was analyzed using Annexin V-APC (BioLegend) and propidium iodide (PI; ThermoFisher Scientific) with Annexin V^−PI^− cells considered as viable cells. The number of viable cells was determined by taking into account the total number of cells per well as measured using a Cellometer (Nexcelom). Mitochondrial membrane potential was measured by Tetramethylrhodamine, ethyl ester (TMRE; ThermoFisher) staining and levels of ROS were measured by CellROX Orange staining. Cells were incubated with 200 nM TMRE or 2.5 μM CellROX Orange in RPMI1640 medium supplemented with 10% FBS, 100 I.U./ml penicillin, 100 μg/ml streptomycin and 2 mM L-glutamine at 37° C. for 30 minutes, washed in flow buffer and analyzed. For all flow cytometry experiments, single color controls were used to set compensations and fluorescence minus one controls were used to set gates. All flow cytometry data was collected on a BD LSR II flow cytometer and analyzed using FlowJo software.
# [5] = test system: MLL-AF9 AML cells; assay: Colony forming unit assay of AML cells obtained from treated mice; type: in vivo, mouse
# Description: as §2, with “water). […] FACS-sorted viable AML cells (GFP^+7-AAD^−) were resuspended in MethoCult GF M3434 (StemCell Technologies) at 1000 cells/ml and plated in SmartDish 6-well plates (StemCell Technologies) at 1 ml/well in duplicate. Cells were cultured in a humidified incubator at 37° C. in ambient air with 5% CO2. After 5 days colonies were counted.” for “water).”
# [6] = test system: pyrimidine synthesis in HoxA9/Meis1 AML cells; assay: LC-MS-based quantification of glutamine metabolism and pyrimidine synthesis metabolites in HoxA9/Meis1 AML cells of treated mice; type: in vivo, mouse; details: mice treated with vehicle or BRQ 24 prior
# Description: as §2, with “To inhibit GCL, mice were treated with BSO (twice daily by I.P. injection at 2.23 mg/kg+in the drinking water at 4.45 mg/ml) or vehicle (saline by I.P. injection+untreated drinking water).” left out
# (§5) For untargeted metabolomics analysis, data were processed with Compound Discoverer 3.0 (ThermoFisher Scientific) using the mzCloud mass spectral library for compound annotation. […] For targeted metabolomics analysis, data were analyzed with Tracefinder4.1 (ThermoFisher Scientific).
# [7] = test system: MLL-AF9 AML cells; assay: Double-stranded DNA breaks in MLL-AF9 AML cells of treated mice, flow cytometry for gamma-H2AX; type: in vivo, mouse; details: short term DON after iCT; one day after the last dose of DON
# Description: as §3, with “(PerkinElmer). When indicated, mice were treated with iCT (cytarabine, 100 mg/kg, once daily for 5 days and doxorubicin, 3 mg/kg, once daily for the first 3 days) or vehicle (saline) delivered via I.P. injection.” for “(PerkinElmer).”
# as §4, with “staining.” for “staining. Cells were incubated with 200 nM TMRE or 2.5 μM CellROX Orange in RPMI1640 medium supplemented with 10% FBS, 100 I.U./ml penicillin, 100 μg/ml streptomycin and 2 mM L-glutamine at 37° C. for 30 minutes, washed in flow buffer and analyzed. For all flow cytometry experiments, single color controls were used to set compensations and fluorescence minus one controls were used to set gates.”
# [8] = test system: glutamine metabolism in MLL-AF9 AML cells; assay: LC-MS-based quantification of metabolites in MLL-AF9 AML cells of treated mice; type: in vivo, mouse; details: one day after the last dose of DON
# Description: as §2
# Mice were euthanized by CO2 asphyxiation and femurs and tibias were isolated and cleaned to remove muscle. Bones were then crushed using a mortar and pestle in ice-cold flow buffer (PBS containing 2% FBS), and the obtained cell suspension was passed through a 70 μm cell strainer. Red blood cells were removed by incubating cells for 5 minutes in ACK lysing buffer (Gibco) on ice, cells were washed and resuspended in ice-cold flow buffer containing the viability dye 7-aminoactinomycin D (7-AAD; BD Biosciences). Viable AML cells (GFP^+7-AAD^−) were sorted on a BD FACSAria II (BD Biosciences) with the sample collector cooled to 4° C. Sorted cells were immediately processed.
# FACS-sorted cells or plasma samples were lysed in ice-cold methanol and polar metabolites were extracted using methanol-chloroform phase separation (methanol:water:chloroform in 2:1:2 ratio). Samples were then dried under nitrogen flow, resuspended in 70% acetonitrile in water containing 2.5 μM of an internal standard (^13C-, ^15N-labeled amino acid mix; Cambridge Isotope Laboratories) and run on a ThermoFisher Q-exactive equipped with Zic-pHILIC column (150×2.1 mm, 5 μm; Merck). A volume of 5 μl was injected and the full mass spectrum was obtained in both positive and negative mode (0 to 45 minutes, resolution 70000, AGC target 3e6, mz range 66 to 990). Mobile phase A for chromatography consisted of 20 mM ammonium carbonate, 0.1% ammonium hydroxide, in water and mobile phase B of 97% acetonitrile in water. For untargeted metabolomics, a pooled sample was created from all samples and used for MS/MS runs. For targeted analysis, a standard mix at 1 μM of each compound of interest was prepared and run after the samples to confirm retention times.
# as §5
# [9] = Tolerability of DON in AML-bearing mice; type: in vivo, mouse
# Description: as §2
# [10] = test system: MLL-AF9 AML cells; assay: Apoptotic cells in MLL-AF9 AML cells of treated mice, flow cytometry for active Caspase 3; type: in vivo, mouse; details: combination of iCT and DON (sequential); one day after the last dose of DON
# Description: as §2
# [11] = test system: HoxA9/Meis1 AML cells; assay: AML cell elimination in HoxA9/Meis1 AML-bearing mice; type: in vivo, mouse; details: DON after completion of iCT
# Description: as §2
# [12] = test system: solid tumors and leukemia; details: Phase I and II clinical trials, cited from earlier work
# [13] = agent alone, compared to vehicle-treated mice
# [14] = combination with iCT (sequential), four days after the last dose of iCT
compound,measurement,setting,value
"Cc1c(-c2ccc(-c3ccccc3F)cc2)nc2ccc(F)cc2c1C(=O)O [BRQ, brequinar]",survival,"[1]; two doses of BRQ 50 mg/kg I.P. following iCT, compared to iCT alone",significantly extend survival; also recorded: extended survival
same,survival,"[1]; two doses of BRQ 50 mg/kg I.P. following iCT, compared to iCT alone, listed as brequinar",remarkably extend animal survival
same,survival,"[2]; BRQ 50 mg/kg I.P. following iCT, compared to iCT alone (FIG. 19E)",significantly extend survival
same,elimination of AML cells from the bone marrow,"[3]; short term BRQ after iCT, four days after the last dose of iCT",improved elimination of AML cells from the bone marrow
same,percentage of CD34+cKit+ cells,[4]; [13],strongly reduced
same,percentage of CD34-cKit+ cells,"[4]; combination with iCT, compared to BRQ alone",further reduced
same,number of colony-forming units (CFUs),[5]; [13],strongly reduced
same,number of colony-forming units (CFUs),[5]; [14],further reduced
same,pyrimidine synthesis (metabolite levels),[6],effectively inhibits pyrimidine synthesis
"CCCCS(=N)(=O)CCC(N)C(=O)O [BSO, L-buthionine-sulfoximine]",survival,"[1]; BSO (2.23 mg/kg B.I.D. I.P. + 4.45 mg/ml in drinking water) for 4 days following iCT, compared to iCT alone",no difference in survival compared to iCT alone
"[N-]=[N+]=CC(=O)CC[C@H](N)C(=O)O [DON, 6-diazo-5-oxo-L-norleucine]",survival,[1]; DON 0.3 mg/kg I.P. given for 5 days at the same time as iCT (concomitant),no difference in survival
same,survival,"[1]; DON 0.3 mg/kg I.P. started after completion of iCT, covering the moment of maximal response, daily for a short time or continuously every other day",clear survival benefit; also recorded: improved survival
same,"survival, DON every other day compared to short term DON treatment",[1]; DON every other day following iCT,further improved mouse survival
same,survival,[2]; two doses of DON 0.3 mg/kg I.P. after completion of iCT,improved mouse survival
same,relapse,"[3]; short term DON after iCT, bioluminescence imaging",delayed relapse
same,elimination of AML cells (AML burden),"[3]; short term DON after iCT, one day after the last dose of DON",improved elimination of AML cells; also recorded: reduced the number of chemoresistant cells
same,double stranded DNA breaks in residual cells (gamma-H2AX),[7],increased double stranded DNA breaks
same,UMP levels in chemoresistant AML cells,[8]; DON after iCT,prevented the increase of UMP levels
same,glutamate level in AML cells,[8]; DON after iCT,normalizing the increase in glutamate; also recorded: partially reducing the increase in glutamate
same,reduced glutathione (GSH) levels in AML cells,[8]; DON after iCT,effective in suppressing the increase in GSH levels
same,aspartate level in AML cells,[8]; iCT followed by DON,remained high
same,glutamine level in AML cells,[8]; mice treated with iCT and/or DON,accumulation of glutamine
same,percentage of CD34+cKit+ cells,[4]; [13],no effect on marker expression
same,percentage of CD34+cKit+ cells,[4]; [14],normalized
same,number of colony-forming units (CFUs),[5]; [13],moderately increased the number of CFUs
same,number of colony-forming units (CFUs),[5]; [14],normalized
same,tolerability,[9]; DON every other day after iCT,acceptable
same,tolerability / toxicity,[9]; daily DON injections after iCT,toxicity issues; also recorded: did not tolerate
same,percentage of apoptotic cells (active Caspase 3),[10],more apoptotic cells
same,AML cell elimination,[11],enhanced AML cell elimination
same,clinical side effects,[12],"dose-dependent side effects including nausea, vomiting and mucositis"
same,clinical efficacy,[12]; single agent,limited efficacy as a single agent
